Key:
[1] = biological target: B-Raf kinase (SEQ. ID NO: 2) (Homo sapiens (Human), UniProt P15056); experiment: Biochemical Assay for B-Raf (1); conditions: Table J, assay version (1); read-out: BRAF (1) IC50
Summary of the method: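 Continuous PK/LDH-coupled NADH oxidation assay, A340 read for 6 h at 30° C., with 0.13 nM B-Raf, 30.1 nM MEK substrate and 1 mM ATP in Tris pH 7.5, MgCl2, DTT, detergents, 1% DMSO. Rate taken from 4–5 h window; percent inhibition vs no-compound and known-inhibitor controls; four-parameter fit gives IC50.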

[2] = biological target: B-Raf (V600E) (SEQ. ID NO: 4) kinase (Homo sapiens (Human), UniProt P15056, V600E); experiment: Biochemical Assay for B-Raf (V600E) (1); conditions: Table J, BRAF V600E, assay version (1); read-out: BRAF VE (1) IC50
Summary of the method: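 Coupled pyruvate kinase/lactate dehydrogenase assay: 0.03 nM B-Raf V600E, 30.1 nM MEK, 1 mM ATP, pH 7.5 Tris/MgCl2 buffer, 1% DMSO. NADH oxidation followed at 340 nm for 6 h at 30 °C; rate from 3–4 h converted to percent inhibition, IC50 by four-parameter fit.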

H2405 cells = experiment: H2405 Cell Proliferation Assay (1); format: cell-based; conditions: Homo sapiens, NCI-H2405
Summary of the method: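 Viability was read by resazurin reduction (ex 540 nm, em 600 nm; 5-6 h with 40 μL of 440 μM stock) after 67-72 h compound exposure at 37 °C.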

Miapaca-2 cells = experiment: MiaPaca-2 Cell Proliferation Assay (1); format: cell-based; conditions: Homo sapiens, MIA PaCa-2, single agent, read-out: MiaPaca2 (1) IC50
Summary of the method: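 Resazurin was added after compound exposure and incubated 5-6 h, then fluorescence read at 540 nm excitation and 600 nm emission to give IC50.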

Chain of B-Raf kinase (SEQ. ID NO: 2) (P15056 416-766): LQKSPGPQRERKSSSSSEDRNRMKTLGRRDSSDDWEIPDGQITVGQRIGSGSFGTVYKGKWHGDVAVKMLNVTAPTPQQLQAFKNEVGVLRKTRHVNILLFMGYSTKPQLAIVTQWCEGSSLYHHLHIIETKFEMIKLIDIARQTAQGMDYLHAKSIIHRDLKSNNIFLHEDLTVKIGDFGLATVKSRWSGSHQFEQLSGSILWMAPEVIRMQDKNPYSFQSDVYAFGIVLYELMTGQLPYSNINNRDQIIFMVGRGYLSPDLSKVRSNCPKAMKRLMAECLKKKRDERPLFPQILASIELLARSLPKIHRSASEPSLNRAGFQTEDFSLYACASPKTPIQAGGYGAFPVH
Chain of B-Raf (V600E) (SEQ. ID NO: 4) kinase (P15056 416-766 V600E): as the sequence (P15056 416-766) above, with V185E counted along it

## Cc1ccc(NC(=O)c2ccnc(C(C)(C)C#N)c2)cc1-c1ccnc(-c2ccnc3c2CC(=O)N3)c1 [Example 23]
[1]
  IC50: ≤ 100 nM
[2]
  IC50: ≤ 100 nM
H2405 cells
  IC50: 100 to 500 nM
Miapaca-2 cells
  IC50: 1000 to 10000 nM

## CNC(=O)c1cc(-c2cc(-c3cc(NC(=O)c4ccnc(C(F)(F)F)c4)ccc3C)cc(C3CC3)n2)ccn1 [Example 27]
[1]
  IC50: 100 to 500 nM
[2]
  IC50: ≤ 100 nM
H2405 cells
  IC50: ≤ 100 nM
Miapaca-2 cells
  IC50: 1000 to 10000 nM

## CC(=O)Nc1cc(-c2cncc(-c3cc(NC(=O)c4ccnc(C(F)(F)F)c4)ccc3C)n2)ccn1 [Example 29]
[1]
  IC50: ≤ 100 nM
[2]
  IC50: ≤ 100 nM
H2405 cells
  IC50: ≤ 100 nM
Miapaca-2 cells
  IC50: 1000 to 10000 nM

## CC(=O)Nc1cc(-c2cccc(-c3cc(NC(=O)c4ccnc(C(F)(F)F)c4)ccc3C)c2)ncn1 [Example 30]
[1]
  IC50: ≤ 100 nM
[2]
  IC50: ≤ 100 nM
H2405 cells
  IC50: ≤ 100 nM
Miapaca-2 cells
  IC50: 1000 to 10000 nM

## Cc1ncc(NC(=O)c2cncc(C(F)F)c2)cc1-c1cccc(-c2cc(NC(=O)C3CC3)ncn2)c1 [Example 280]
[1]
  IC50: ≤ 100 nM
[2]
  IC50: ≤ 100 nM
H2405 cells
  IC50: 100 to 500 nM
Miapaca-2 cells
  IC50: 1000 to 10000 nM

## Cc1ncc(NC(=O)c2cn(C(C)C)nn2)cc1-c1ccnc(-c2ccnc(NC(=O)C3CC3)c2)n1 [Example 281]
[1]
  IC50: ≤ 100 nM
[2]
  IC50: ≤ 100 nM
H2405 cells
  IC50: 100 to 500 nM
Miapaca-2 cells
  IC50: 1000 to 10000 nM

## COC(=O)Nc1cc(-c2cccc(-c3cc(NC(=O)c4ccnc(C(C)(C)C#N)c4)cnc3C)c2)ccn1 [Example 282]
[1]
  IC50: ≤ 100 nM
[2]
  IC50: ≤ 100 nM
H2405 cells
  IC50: 500 to 1000 nM
Miapaca-2 cells
  IC50: 1000 to 10000 nM

## Cc1ncc(NC(=O)c2cnn(C(C)(C)C)c2)cc1-c1ccnc(-c2ccnc(NC(=O)C3CC3)c2)n1 [Example 283]
[1]
  IC50: ≤ 100 nM
[2]
  IC50: ≤ 100 nM
H2405 cells
  IC50: 100 to 500 nM
Miapaca-2 cells
  IC50: 1000 to 10000 nM

## Cc1ccc(NC(=O)c2cnnc(C3CC3)c2)cc1-c1cccc(-c2cc(NC(=O)C3CC3)ncn2)c1 [Example 284]
[1]
  IC50: ≤ 100 nM
[2]
  IC50: ≤ 100 nM
H2405 cells
  IC50: 500 to 1000 nM
Miapaca-2 cells
  IC50: 1000 to 10000 nM

## Cc1nc(-c2ccnc(NC(=O)C3CC3)c2)cc(-c2cc(NC(=O)c3ccnc(C4(C#N)CC4)c3)cnc2C)n1 [Example 286]
[1]
  IC50: ≤ 100 nM
[2]
  IC50: ≤ 100 nM
H2405 cells
  IC50: 100 to 500 nM
Miapaca-2 cells
  IC50: 1000 to 10000 nM

## Cc1nc(-c2ccnc(NC(=O)C3CC3)c2)cc(-c2cc(NC(=O)c3ccnc(C4CC4)c3)cnc2C)n1 [Example 287]
[1]
  IC50: ≤ 100 nM
[2]
  IC50: ≤ 100 nM
H2405 cells
  IC50: 500 to 1000 nM
Miapaca-2 cells
  IC50: 1000 to 10000 nM

## COC(=O)Nc1cc(-c2cccc(-c3cc(NC(=O)c4ccnc(C5CC5)c4)cnc3C)c2)ccn1 [Example 288]
[1]
  IC50: ≤ 100 nM
[2]
  IC50: ≤ 100 nM
H2405 cells
  IC50: 1000 to 10000 nM
Miapaca-2 cells
  IC50: 1000 to 10000 nM

## COC(=O)Nc1nccc(-c2cccc(-c3cc(NC(=O)c4ccnc(C(C)(C)C#N)c4)cnc3C)c2)n1 [Example 290]
[1]
  IC50: 500 to 1000 nM
[2]
  IC50: ≤ 100 nM
H2405 cells
  IC50: 1000 to 10000 nM
Miapaca-2 cells
  IC50: 1000 to 10000 nM

## Cc1ncc(NC(=O)c2ccnc(C3CC3)c2)cc1-c1cccc(-c2cc(NC(=O)C3CC3)ncn2)c1 [Example 291]
[1]
  IC50: ≤ 100 nM
[2]
  IC50: ≤ 100 nM
H2405 cells
  IC50: 100 to 500 nM
Miapaca-2 cells
  IC50: 1000 to 10000 nM

## Cc1ncc(NC(=O)c2ccnc(C3CC3)c2)cc1-c1nccc(-c2ccnc(NC(=O)C3CC3)c2)n1 [Example 295]
[1]
  IC50: ≤ 100 nM
[2]
  IC50: ≤ 100 nM
H2405 cells
  IC50: 100 to 500 nM
Miapaca-2 cells
  IC50: 1000 to 10000 nM

## COC(=O)Nc1cc(-c2cc(-c3cc(NC(=O)c4ccnc(C(C)(C)C#N)c4)cnc3C)ccn2)ccn1 [Example 297]
[1]
  IC50: ≤ 100 nM
[2]
  IC50: ≤ 100 nM
H2405 cells
  IC50: ≤ 100 nM
Miapaca-2 cells
  IC50: 1000 to 10000 nM

## Cc1cc(F)c(NC(=O)c2ccnc(C(C)(C)C#N)c2)cc1-c1cc(-c2ccnc(NC(=O)C3CC3)c2)cnn1 [Example 298]
[1]
  IC50: ≤ 100 nM
[2]
  IC50: ≤ 100 nM
H2405 cells
  IC50: 100 to 500 nM
Miapaca-2 cells
  IC50: 1000 to 10000 nM

## COC(=O)Nc1cc(-c2cnnc(-c3cc(NC(=O)c4ccnc(C(C)(C)C#N)c4)c(F)cc3C)c2)ccn1 [Example 299]
[1]
  IC50: ≤ 100 nM
[2]
  IC50: ≤ 100 nM
H2405 cells
  IC50: 100 to 500 nM
Miapaca-2 cells
  IC50: 1000 to 10000 nM

## Cc1cc(F)c(NC(=O)c2ccnc(C(C)(C)F)c2)cc1-c1ccnc(-c2ccnc(NC(=O)C3CC3)c2)c1 [Example 300]
[1]
  IC50: ≤ 100 nM
[2]
  IC50: ≤ 100 nM
H2405 cells
  IC50: ≤ 100 nM
Miapaca-2 cells
  IC50: 1000 to 10000 nM

## Cc1ncc(NC(=O)c2ccnc(C(C)(C)C#N)c2)cc1-c1cccc(-c2ccnc(C(N)=O)c2)c1 [Example 301]
[1]
  IC50: ≤ 100 nM
[2]
  IC50: ≤ 100 nM
H2405 cells
  IC50: 100 to 500 nM
Miapaca-2 cells
  IC50: 1000 to 10000 nM

## COC(=O)Nc1cc(-c2nccc(-c3cc(NC(=O)c4ccnc(C(C)(C)F)c4)c(F)cc3C)n2)ccn1 [Example 304]
[1]
  IC50: ≤ 100 nM
[2]
  IC50: ≤ 100 nM
H2405 cells
  IC50: 100 to 500 nM
Miapaca-2 cells
  IC50: 1000 to 10000 nM

## COC(=O)Nc1cc(-c2cnnc(-c3cc(NC(=O)CN4CCCC4)cnc3C)c2)ccn1 [Example 359]
[1]
  IC50: 1000 to 10000 nM
[2]
  IC50: 1000 to 10000 nM
H2405 cells
  IC50: 1000 to 10000 nM

## COC(=O)Nc1cc(-c2cnnc(-c3cc(NC(=O)COCC4CC4)ccc3C)c2)ccn1 [Example 360]
[1]
  IC50: 500 to 1000 nM
[2]
  IC50: 1000 to 10000 nM
H2405 cells
  IC50: 1000 to 10000 nM

## COC(=O)Nc1cc(-c2cnnc(-c3cc(NC(=O)c4ccnc(C(C)(C)F)c4)cnc3C)c2)ccn1 [Example 361]
[1]
  IC50: 100 to 500 nM
[2]
  IC50: 100 to 500 nM
H2405 cells
  IC50: 500 to 1000 nM

## COC(=O)Nc1cc(-c2cnnc(-c3cc(NC(=O)c4ccnc(C5CC5)c4)cnc3C)c2)ccn1 [Example 362]
[1]
  IC50: 100 to 500 nM
[2]
  IC50: 1000 to 10000 nM
H2405 cells
  IC50: 1000 to 10000 nM

## COC(=O)Nc1cc(-c2cnnc(-c3cc(NC(=O)c4ccnc(C(F)F)c4)cnc3C)c2)ccn1 [Example 363]
[1]
  IC50: 500 to 1000 nM
[2]
  IC50: 1000 to 10000 nM
H2405 cells
  IC50: 1000 to 10000 nM

## CNC(=O)c1cc(-c2cnnc(-c3cc(NC(=O)c4ccnc(C(F)(F)F)c4)ccc3C)c2)ccn1 [Example 364]
[1]
  IC50: 100 to 500 nM
[2]
  IC50: 100 to 500 nM
H2405 cells
  IC50: 500 to 1000 nM

## COCCNC(=O)c1cc(-c2cnnc(-c3cc(NC(=O)c4cccc(C5CC5)c4)ccc3C)c2)ccn1 [Example 365]
[1]
  IC50: 100 to 500 nM
[2]
  IC50: 500 to 1000 nM
H2405 cells
  IC50: 1000 to 10000 nM

## CNC(=O)c1cc(-c2cnnc(-c3cc(NC(=O)c4cn(C(C)(C)C)nn4)ccc3C)c2)ccn1 [Example 366]
[1]
  IC50: 100 to 500 nM
[2]
  IC50: 100 to 500 nM
H2405 cells
  IC50: 1000 to 10000 nM

## Cc1ccc(NC(=O)c2cc(C(C)(C)C)no2)cc1-c1cc(-c2ccnc(NC(=O)C3CC3)c2)cnn1 [Example 367]
[1]
  IC50: ≤ 100 nM
[2]
  IC50: ≤ 100 nM
H2405 cells
  IC50: 100 to 500 nM

## COC(=O)Nc1cc(-c2cnnc(-c3cc(NC(=O)CC4CCCC4)cnc3C)c2)ccn1 [Example 368]
[1]
  IC50: 1000 to 10000 nM
[2]
  IC50: 1000 to 10000 nM
H2405 cells
  IC50: 1000 to 10000 nM

## Cc1ccc(NC(=O)c2ccnc(C(C)(C)C#N)c2)cc1-c1cc(-c2ccnc3[nH]ccc23)cnn1 [Example 369]
[1]
  IC50: ≤ 100 nM
[2]
  IC50: ≤ 100 nM
H2405 cells
  IC50: 500 to 1000 nM

## Cc1ccc(NC(=O)C2CCOC(C(C)C)C2)cc1-c1cc(-c2ccnc(NC(=O)C3CC3)c2)cnn1 (stereo not drawn) [Example 370]
[1]
  IC50: ≤ 100 nM
[2]
  IC50: ≤ 100 nM
H2405 cells
  IC50: 500 to 1000 nM

## CNC(=O)c1cc(-c2cc(-c3cc(NC(=O)c4ccnc(C(C)(C)F)c4)ccc3C)cnc2C)ccn1 [Example 371]
[1]
  IC50: 100 to 500 nM
[2]
  IC50: ≤ 100 nM
H2405 cells
  IC50: 100 to 500 nM

## Cc1ccc(NC(=O)c2ccnc(C(C)(C)C#N)c2)cc1-c1cc(-c2ccnc(C(=O)NC3CC3)c2)cnn1 [Example 372]
[1]
  IC50: 1000 to 10000 nM
[2]
  IC50: 100 to 500 nM
H2405 cells
  IC50: 1000 to 10000 nM

— US12319655B2, “RAF kinase inhibitors and methods of use thereof” (Deciphera Pharmaceuticals, LLC, priority 2021, dated 2025)
